Reference: ChEMBL document CHEMBL1137048, “Design and evaluation of novel nonsteroidal dissociating glucocorticoid receptor ligands” (Bioorg Med Chem Lett, 2004)

Columns and labels:
[1] = biological target: T1, Glucocorticoid receptor (Homo sapiens, UniProt P04150); test: Binding affinity for recombinant human glucocorticoid receptor
T1 sequence (P04150 whole entry): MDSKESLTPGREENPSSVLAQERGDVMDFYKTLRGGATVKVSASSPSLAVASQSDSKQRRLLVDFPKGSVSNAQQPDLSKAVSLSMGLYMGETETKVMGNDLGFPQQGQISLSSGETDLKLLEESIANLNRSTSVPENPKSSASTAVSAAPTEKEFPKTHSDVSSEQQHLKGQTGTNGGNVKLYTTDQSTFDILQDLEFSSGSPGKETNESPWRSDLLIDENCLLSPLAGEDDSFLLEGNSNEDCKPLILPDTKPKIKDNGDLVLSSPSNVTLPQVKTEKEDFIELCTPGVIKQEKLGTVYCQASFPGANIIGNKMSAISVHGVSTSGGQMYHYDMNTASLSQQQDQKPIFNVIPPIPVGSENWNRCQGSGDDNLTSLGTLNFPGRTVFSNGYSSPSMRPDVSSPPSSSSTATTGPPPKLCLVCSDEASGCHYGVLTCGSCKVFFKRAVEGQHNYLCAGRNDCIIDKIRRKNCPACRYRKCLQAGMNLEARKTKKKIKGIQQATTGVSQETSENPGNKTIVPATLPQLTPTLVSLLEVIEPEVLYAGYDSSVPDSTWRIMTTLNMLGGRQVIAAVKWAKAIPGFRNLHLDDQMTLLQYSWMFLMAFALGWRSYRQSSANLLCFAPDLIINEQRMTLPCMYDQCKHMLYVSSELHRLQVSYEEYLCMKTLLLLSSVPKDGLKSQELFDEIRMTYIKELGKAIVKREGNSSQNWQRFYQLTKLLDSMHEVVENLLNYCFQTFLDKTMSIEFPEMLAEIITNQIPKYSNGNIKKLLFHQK

[2] = biological target: T2, Glucocorticoid receptor (Rattus norvegicus, UniProt P06536); test: Effective concentration against MMTV in transactivation assay in U2OS cells expressing rat GR; assay type: functional, cell-based
T2 sequence (P06536 whole entry): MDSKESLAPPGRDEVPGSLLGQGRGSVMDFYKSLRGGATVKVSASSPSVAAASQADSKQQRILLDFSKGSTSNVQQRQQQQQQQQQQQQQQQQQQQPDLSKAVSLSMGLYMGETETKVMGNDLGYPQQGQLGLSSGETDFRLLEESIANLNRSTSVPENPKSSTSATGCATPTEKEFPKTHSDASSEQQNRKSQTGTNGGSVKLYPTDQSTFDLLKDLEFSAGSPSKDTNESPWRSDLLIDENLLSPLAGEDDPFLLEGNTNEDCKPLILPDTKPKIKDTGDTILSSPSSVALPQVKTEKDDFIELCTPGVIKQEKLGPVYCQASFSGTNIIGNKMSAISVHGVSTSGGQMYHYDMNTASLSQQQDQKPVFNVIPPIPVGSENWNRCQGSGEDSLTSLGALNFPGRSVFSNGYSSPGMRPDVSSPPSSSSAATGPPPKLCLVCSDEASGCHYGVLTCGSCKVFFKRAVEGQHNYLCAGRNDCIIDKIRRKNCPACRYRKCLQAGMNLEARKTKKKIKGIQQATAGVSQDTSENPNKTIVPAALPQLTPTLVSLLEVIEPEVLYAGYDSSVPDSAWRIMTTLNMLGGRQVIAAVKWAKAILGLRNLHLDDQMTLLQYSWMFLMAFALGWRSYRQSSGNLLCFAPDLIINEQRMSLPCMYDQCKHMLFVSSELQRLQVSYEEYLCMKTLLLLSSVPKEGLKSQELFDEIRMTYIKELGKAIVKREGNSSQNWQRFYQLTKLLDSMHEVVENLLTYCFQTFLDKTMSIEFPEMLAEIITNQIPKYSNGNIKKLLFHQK

[3] = biological target: T2, Glucocorticoid receptor; test: Repression of AP1-luciferase reporter activity in TPA-stimulated U2OS cells expressing rat glucocorticoid receptor; assay type: functional, cell-based
[4] = biological target: T2, Glucocorticoid receptor; test: Inhibition against U2OS cells expressing rat Glucocorticoid receptor; assay type: cell-based
[5] = biological target: T2, Glucocorticoid receptor; test: Repression of NF-kappaB-luciferase reporter activity in TPA stimulated U2OS cells expressing rat glucocorticoid receptor; assay type: functional, cell-based
[6] = biological target: T1, Glucocorticoid receptor; test: Effective concentration in CV-1 cell transactivation assay; assay type: functional, cell-based

| Structure (SMILES) | IC50 [1] [nM] | EC50 [2] [nM] | EC50 [3] [nM] | IC50 [4] [nM] | EC50 [5] [nM] | EC50 [6] [nM] |
| --- | --- | --- | --- | --- | --- | --- |
| CC12CCC(=O)C=C1CCCC2C(O)c1csc2ccccc12 (stereo not drawn) | 165 |  |  |  |  |  |
| C[C@]12Cc3cnn(-c4ccc(F)cc4)c3C=C1CCC[C@@H]2C(O)Cc1ccccc1 (stereo partly drawn) |  | 9 | 17 | 5.5 | 11 |  |
| CCCCCCCCC(O)[C@H]1CCCC2=Cc3c(cnn3-c3ccc(F)cc3)C[C@@]21C (stereo partly drawn) |  | 4 | 6 | 4.9 | 4 |  |
| Cc1ccc(C(O)[C@H]2CCCC3=Cc4c(cnn4-c4ccc(F)cc4)C[C@@]32C)cc1 (stereo partly drawn) |  | 4 | 3 | 2.5 | 8 |  |
| CC12CCC(=O)C=C1CCCC2C(O)c1ccccc1 (stereo not drawn) | 2100 |  |  |  |  |  |
| C[C@]12Cc3cnn(-c4ccc(F)cc4)c3C=C1CCC[C@@H]2C(O)c1cccc(O)c1 (stereo partly drawn) |  | 3 | 3 | 5.2 | 3 |  |
| C[C@]12Cc3cnn(-c4ccc(F)cc4)c3C=C1CCC[C@@H]2C(O)c1ccc(Oc2ccccc2)cc1 (stereo partly drawn) |  |  |  | 15.5 |  |  |
| C[C@@H]1C[C@H]2C3CCC4=CC(=O)C=C[C@]4(C)[C@@]3(F)[C@@H](O)C[C@]2(C)[C@@]1(O)C(=O)O (stereo partly drawn) | 5 | 0.2 | 0.2 | 1.4 | 0.3 | 5.6 |
| C[C@]12Cc3cnn(-c4ccc(F)cc4)c3C=C1CCC[C@@H]2C(O)c1ccc(C(F)(F)F)cc1 (stereo partly drawn) |  | 31 | 31 | 14 | 24 |  |
| C[C@]12Cc3cnn(-c4ccc(F)cc4)c3C=C1CCC[C@@H]2C(O)c1ccc(Cl)cc1 (stereo partly drawn) |  | 9 | 3 | 7 | 4 |  |
| C[C@]12Cc3cnn(-c4ccc(F)cc4)c3C=C1CCC[C@@H]2C(O)c1ccccc1 (stereo partly drawn) |  | 3 | 3 | 7.9 | 4 |  |
| C[C@]12Cc3cnn(-c4ccc(F)cc4)c3C=C1CCC[C@@H]2C(O)CCc1ccccc1 (stereo partly drawn) |  | 11 | 7 | 8.6 | 3 |  |
| C[C@]12Cc3cnn(-c4ccc(F)cc4)c3C=C1CCC[C@@H]2C(O)c1ccc(O)cc1 (stereo partly drawn) |  | 20 | 16 | 6.6 | 12 |  |
| COc1cc(C(O)C2CCCC3=CC(=O)CCC32C)cc(OC)c1OC (stereo not drawn) | > 2000 |  |  |  |  |  |
| CCCCC(O)[C@H]1CCCC2=Cc3c(cnn3-c3ccc(F)cc3)C[C@@]21C (stereo partly drawn) |  | 5 | 8 | 0.7 | 3 |  |
| C[C@]12Cc3cnn(-c4ccc(F)cc4)c3C=C1CCC[C@@H]2C(O)c1csc2ccccc12 (stereo partly drawn) |  | 20 | 1.8 | 1.8 | 22 |  |
| COc1cccc(C(O)[C@H]2CCCC3=Cc4c(cnn4-c4ccc(F)cc4)C[C@@]32C)c1 (stereo partly drawn) |  | 4 | 19 | 2.3 | 3 |  |
